Measured values as given in US20240390335A1, “PHARMACEUTICAL COMPOSITION CONTAINING BETA-LACTAM COMPOUND AND USE THEREOF” (priority 2021, published 2024).

Legend:
Acinetobacter baumannii = assay: Combined in vitro use, checkerboard dilution method; assay type: cell-based
Procedure, shortened: (§1)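 Checkerboard two-fold dilutions of drug (2,048 μg/mL stock) plus lactamase or efflux pump inhibitor in MH broth, inoculated with bacteria at 6×10^5 CFU/mL (suspension concentration), 37° C for 18 hours. Growth scored visually. FICI computed from MICs in combination versus alone; triplicates, three separate days, averaged.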

Klebsiella pneumoniae = assay: as above; assay type: cell-based
Procedure, shortened: as §1

CC1(C)[C@H](NC(=O)/C(=N\OC2(C(=O)O)CC2)c2csc(N)n2)C(=O)N1OS(=O)(=O)O [Compound of formula (I-1)]
reduction of MIC values on combination (Acinetobacter baumannii; combined with berberine, Acinetobacter baumannii ATCC19606 and ATCC17978): four-fold | reduction of MIC values on combination (Acinetobacter baumannii; combined with conessine, Acinetobacter baumannii ATCC19606): four-fold | MIC in combination (Acinetobacter baumannii; compound of formula (I-1) combined with PAβN, Acinetobacter baumannii ATCC 17978): 16 µg/mL | MIC in combination (Acinetobacter baumannii; compound of formula (I-1) combined with PAβN, Acinetobacter baumannii ATCC 19606): 16 µg/mL | MIC in combination (Acinetobacter baumannii; compound of formula (I-1) combined with PAβN, Acinetobacter baumannii CCPM(A)-P-101633(CRAB)): 16 µg/mL | MIC in combination (Acinetobacter baumannii; compound of formula (I-1) combined with berberine, Acinetobacter baumannii ATCC 17978): 4 µg/mL | MIC in combination (Acinetobacter baumannii; compound of formula (I-1) combined with berberine, Acinetobacter baumannii ATCC 19606): 4 µg/mL | MIC in combination (Acinetobacter baumannii; compound of formula (I-1) combined with berberine, Acinetobacter baumannii CCPM(A)-P-101633(CRAB)): 16 µg/mL | MIC in combination (Acinetobacter baumannii; compound of formula (I-1) combined with conessine, Acinetobacter baumannii ATCC 19606): 4 µg/mL | MIC in combination (Klebsiella pneumoniae; compound of formula (I-1) combined with avibactam, Klebsiella pneumoniae ATCC 2146): 0.5 µg/mL | MIC in combination (Klebsiella pneumoniae; compound of formula (I-1) combined with avibactam, Klebsiella pneumoniae ATCC 700603): 0.5 µg/mL | MIC in combination (Klebsiella pneumoniae; compound of formula (I-1) combined with avibactam, Klebsiella pneumoniae CCPM(A)-0814R18): 0.25 µg/mL | MIC in combination (Klebsiella pneumoniae; compound of formula (I-1) combined with avibactam, Klebsiella pneumoniae CCPM(A)-0814R33): 0.25 µg/mL | MIC in combination (Klebsiella pneumoniae; compound of formula (I-1) combined with avibactam, Klebsiella pneumoniae CCPM(A)-0817R61): 1 µg/mL | MIC in combination (Klebsiella pneumoniae; compound of formula (I-1) combined with avibactam, Klebsiella pneumoniae CCPM(A)-081705): 0.5 µg/mL | MIC in combination (Klebsiella pneumoniae; compound of formula (I-1) combined with avibactam, Klebsiella pneumoniae CCPM(A)-081715): 0.5 µg/mL | MIC in combination (Klebsiella pneumoniae; compound of formula (I-1) combined with avibactam, Klebsiella pneumoniae CCPM(A)-081716): 0.25 µg/mL | MIC in combination (Klebsiella pneumoniae; compound of formula (I-1) combined with avibactam, Klebsiella pneumoniae CCPM(A)-081729): 0.5 µg/mL | MIC in combination (Klebsiella pneumoniae; compound of formula (I-1) combined with relebactam, Klebsiella pneumoniae ATCC 2146): 0.5 µg/mL | MIC in combination (Klebsiella pneumoniae; compound of formula (I-1) combined with relebactam, Klebsiella pneumoniae ATCC 700603): 0.125 µg/mL | MIC in combination (Klebsiella pneumoniae; compound of formula (I-1) combined with vaborbactam, Klebsiella pneumoniae ATCC 700603): 0.5 µg/mL | MIC in combination (Klebsiella pneumoniae; compound of formula (I-1) combined with vaborbactam, Klebsiella pneumoniae CCPM(A)-0814R33): 0.5 µg/mL
